# Results reported in patent US9901648B2, “Stabilization of biomolecules using sugar polymers” (THE REGENTS OF THE UNIVERSITY OF CALIFORNIA, priority 2012, dated 2018).
# What was measured:
# hen egg white lysozyme [1] = biological target: T1, hen egg white lysozyme (Gallus gallus, UniProt P00698); assay: Lyophilization stability activity assay (10 lyophilization cycles, EnzChek lysozyme activity); type: biochemical
# T1 construct: reconstituting hen egg white lysozyme (0.1 mg/mL, DPBS, pH 7.4) as received without further purification; purchased Sigma-Aldrich; host or cells: hen egg white
# Procedure: (§1) Lysozyme-glycopolymer conjugate (Lyz-6). To a 1.5 mL Lo-Bind® centrifuge tube was added thiopropionyl hen egg white lysozyme (LyzSH) (70 μL, 10 mg/mL, DPBS, pH 8.0) and 6 (16 mg, 0.71 μmol, 15 eq) and the entire reaction was diluted to a final volume of 500 μL (DPBS, pH 8.0) before storage at 4° C. for 3 hours. The resulting mixture was purified by FPLC (50 mM PB, 150 mM NaCl, pH 7.4), fractions were concentrated by centriprep ultrafiltration (MWCO 3 kDa, DPBS, pH 7.4) and stored at 4° C. Samples were diluted 5 fold before the EnzChek® lysozyme activity assay was employed to measure fraction activity. In a typical assay 50 μL of diluted sample was incubated with 50 μL of Micrococcus luteus labeled with FITC (1 mg/mL) at 37° C. for 1 hour. Subsequently, fluorescence of lysed cell membrane and thus lysozyme activity was measured as FITC fluorescence (abs 480 nm/em 530 nm) and quantified relative to known standards.
# Wild-type lysozyme was prepared by reconstituting hen egg white lysozyme (0.1 mg/mL, 1 eq, DPBS, pH 7.4) as received without further purification. Samples were further diluted to 0.021 mg/mL (1 kU/mL) in 20 μL aliquots prior to application of lyophilization or thermal insults.
# Wild-type lysozyme samples mixed with glyco-polymer were prepared by adding trehalose polymer (Poly 5-8, 1 or 100 eq relative to lysozyme) to a solution of lysozyme (0.1 mg/mL, DPBS, pH 7.4) before storage at 4° C. Samples were further diluted to a lysozyme concentration of 0.021 mg/mL (1 kU/mL) in 20 μL aliquots prior to application of lyophilization or thermal insult.
# Wild-type lysozyme samples mixed with trehalose were prepared by adding trehalose (1 or 100 eq relative to the number of trehalose monomer units in Poly 5-8) to a solution of lysozyme (0.1 mg/mL, DPBS, pH 7.4) before storage at 4° C. […]
# (§2) Wild-type lysozyme was prepared by reconstituting hen egg white lysozyme (0.1 mg/mL, DPBS, pH 7.4) as received without further purification. […] Statistics were calculated utilizing the Students t test; % confidence as +/−=t*(standard deviation)/(number of trials)^(½) with p<1−% confidence/100.
# [2] = biological target: Recombinant Human Insulin (Homo sapiens, UniProt P01308); assay: Insulin stabilization at 90° C. (native gel); details: 90° C. for 1 h; insulin 1 mg/mL; 750 equiv of trehalose
# Procedure: Prepared P1, P2, P3, and the same concentration of trehalose as an additive were tested for stabilization of insulin against heating under 90° C. for 1 h. After heating all the samples were loaded on the native gel (FIG. 30). Insulin without any additive was denatured and the band was almost gone in native gel. […] The MALDI-TOF data provides that insulin, originally 5.8 kDa, denatures into mainly two fragments after heating (data not shown). This is due to the breakage of two disulfide bridges liking a and β chain of insulin.
# Insulin was dissolved in pH 7.4 D-PBS buffer (1 mg/mL). The samples were prepared by adding 10 equiv of P1, P2, and P3 or 750 equiv of trehalose into the insulin solution. […] Other samples with polymers or trehalose were heated as 90° C. for 1 h and ran through the native gel.
# β-galactosidase (β-Gal) = details: lyophilization cycles; β-Gal 0.1 mg/mL; 7500 equiv of trehalose
# Procedure: The stabilization of β-galactosidase (β-Gal) was also tested after multiple lyophilization cycles. β-Gal is known to be easily denatured by lyophilization or freeze-thaw cycles (Pikal-Cleland and Capenter, 2001). Activity of β-Gal was measured by reacting with o-nitrophenyl-β-D-galactoside (ONPG), which releases o-nitrophenol, a yellow color product that absorbs light at 420 nm.
# 0.4 mg/mL P3-Gal solution was prepared in pH 7.0 10 mM sodium phosphate buffer. 50 μL aliquots of β-Gal solution were mixed with 150 μL of buffer or 150 μL of polymer (100 equiv) or trehalose (7500 equiv) in H2O to result 0.1 mg/mL protein solution. Aliquots of each sample were frozen by immersion in liquid nitrogen before lyophilization. The samples were lyophilized for 12 h for one cycle under 1 mbar. After each cycle 200 μL of H2O was added and the lyophilization repeated for 3 cycles and 4 cycles. The control was stored in 4° C. until the activity assay was performed. The assay includes 6 repeats by reacting with o-nitrophenyl-β-D-galactoside (ONPG).
# glucose oxidase (GOX) = glucose oxidase (GOX) (Aspergillus niger, UniProt P13006); assay: Glucose oxidase stabilization at 50° C. (Amplex Red assay); type: biochemical; details: 50° C. for 30 min; GOX 0.1 mg/mL; 7500 equivalent of trehalose
# Procedure: Trehalose glycopolymers P1 through P4 were also tested for glucose oxidase (GOX) stabilization against 50° C. heat for 30 min. The activity of GOX was evaluated using Amplex® Red Glucose/Glucose Oxidase Assay Kit (Invitrogen). GOX reacts with D-glucose to form H2O2, which can then react with the Amplex® in the presence of horseradish peroxidase (HRP) to generate resorufin and can be detected by fluorescence. GOX samples were prepared without any additive, with 100 equivalent of P1-P4, and 7500 equivalent of trehalose, which is equal to the number of repeating units in the P1. All samples were heated to 50° C. for 30 min and repeated six times. Heated samples were then tested for GOX reactivity and percent original activities were calculated using same concentration of GOX without heating and additive (FIG. 29).
# 2 μL aliquots of GOX solution were mixed with 2 μL aliquots of each polymer and trehalose solution or buffer only to give the final concentration of 0.1 mg/mL GOX. […] Activity was measured using Amplex® Red Glucose/Glucose Oxidase Assay kit following the product manual procedures.
# [3] = test system: horseradish peroxidase (HRP); assay: Horseradish peroxidase stabilization at 70° C. (TMB activity); type: biochemical; details: 70° C. for 30 min; HRP 75 μg/mL; 7500 equivalent of trehalose
# Procedure: The activity of horseradish peroxidase (HRP) after exposure to a temperature of 70° C. for 30 minutes was tested, and the results are provided in FIG. 28. The activity of HRP was tested through reaction with 3,3′,5,5′-tetramethylbenzidine (TMB), which produces a blue by-product. HRP samples were prepared without any additive, with 100 equivalent of P1-P4, or 7500 equivalent of trehalose, which is equal to the trehalose in the P1 sample. Heated samples were then tested for HRP reactivity and the percent original activities were calculated using same concentration of HRP without heating and additive (FIG. 28). After heating, HRP in solution without any additive, only 46% of the original activity was observed. […] The same concentration of trehalose maintained only 80% of HRP activity. All samples were repeated six times and their p value compared with no additive were <0.001.
# Horseradish Peroxidase Stabilized by P1-P4 at 70° C. […] Stock solutions of 100 equiv of P1, P2, P3 and P4 and 7500 equiv of trehalose were also prepared in the same buffer. 2 μL aliquots of HRP solution were mixed with 2 μL aliquots of each polymer and trehalose solution to give final concentration of 75 μg/mL HRP or with only buffer. […] The assay was repeated 6 times following the know procedure with tetramethylbenzemidine (TMB).
# hen egg white lysozyme [4] = biological target: T1, hen egg white lysozyme; assay: Thermo-stability (heat burden) assay, 90° C., EnzChek lysozyme activity; type: biochemical
# Procedure: as §1, with “standards. […]” for “standards.”
# as §2, with “received and was stored” for “received”, “purification at 4° C. in 20 μL aliquots. […] Activities of stressed samples were measured relative to identical aliquots that were not exposed to heat.” for “purification.”
# T1 sequence (P00698 19-147): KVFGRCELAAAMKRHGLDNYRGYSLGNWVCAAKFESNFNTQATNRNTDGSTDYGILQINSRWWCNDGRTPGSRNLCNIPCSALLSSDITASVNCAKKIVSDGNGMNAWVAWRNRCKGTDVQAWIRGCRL
# glucose oxidase (GOX), sequence (P13006 17-605, species assumed): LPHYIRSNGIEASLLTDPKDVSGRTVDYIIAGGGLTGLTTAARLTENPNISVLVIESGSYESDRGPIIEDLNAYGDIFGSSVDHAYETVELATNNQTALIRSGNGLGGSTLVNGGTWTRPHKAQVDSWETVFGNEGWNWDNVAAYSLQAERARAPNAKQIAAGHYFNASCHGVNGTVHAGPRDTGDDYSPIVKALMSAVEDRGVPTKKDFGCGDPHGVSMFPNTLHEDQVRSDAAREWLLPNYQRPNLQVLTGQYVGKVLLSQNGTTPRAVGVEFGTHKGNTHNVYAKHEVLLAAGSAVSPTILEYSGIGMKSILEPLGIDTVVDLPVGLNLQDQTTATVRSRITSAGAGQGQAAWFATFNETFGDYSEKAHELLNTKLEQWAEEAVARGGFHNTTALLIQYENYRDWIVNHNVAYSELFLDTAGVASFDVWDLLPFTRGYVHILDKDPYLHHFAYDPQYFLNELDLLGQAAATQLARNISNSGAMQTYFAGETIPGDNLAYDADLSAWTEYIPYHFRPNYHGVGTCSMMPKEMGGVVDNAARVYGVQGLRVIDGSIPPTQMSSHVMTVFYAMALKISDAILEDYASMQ
# Recombinant Human Insulin, sequence (P01308 25-54 limits assumed): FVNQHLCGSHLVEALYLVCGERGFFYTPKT
# Recombinant Human Insulin, sequence (P01308 90-110 limits assumed): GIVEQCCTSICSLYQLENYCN
Compound,retention of lysozyme activity with added trehalose (hen egg white lysozyme [1]; trehalose at equivalent concentrations to that in the 100-fold polymers),insulin band on native gel after heating [2],β-Gal original activity maintained (β-galactosidase (β-Gal)) [%],percent original GOX activity (glucose oxidase (GOX)) [%],percent original HRP activity [3] [%],"activity retention with added trehalose (hen egg white lysozyme [4]; 90° C. for 1 hour, highest trehalose concentration (100 eq Poly8 monomer units)) [%]","activity relative to unexposed sample stored at 4° C. (hen egg white lysozyme [1]; 0.1 mg/mL, DPBS pH 7.4, conjugate or protein alone, no additive) [%]","retention of original activity (hen egg white lysozyme [1]; lysozyme 0.021 mg/mL (1 kU/mL), conjugate or protein alone) [%]","remaining activity after heat burden (hen egg white lysozyme [4]; 90° C. for 3 hours, 0.1 mg/mL, conjugate or protein alone)"
OC[C@H]1O[C@H](O[C@H]2O[C@H](CO)[C@@H](O)[C@H](O)[C@H]2O)[C@H](O)[C@@H](O)[C@@H]1O [trehalose],18-31%,greatly reduced,45,72,80,31,–,–,–
"wild-type lysozyme: hen egg white lysozyme reconstituted as received, unmodified",–,–,–,–,–,–,~20,16,no activity remained
